Measurements from ChEMBL document CHEMBL1151153, “Chemistry of Sponges, VII. 11,19-Dideoxyfistularin 3 and 11-Hydroxyaerothionin, Bromotyrosine Derivatives from Pseudoceratina durissima” (J Nat Prod, 1990).
Active and inactive are the calls of the source.

Legend:
Type in all cases: functional, organism-based
Candida albicans [1] = assay: Antimicrobial activity against Candida albicans at 50 ug/disk
Bacillus subtilis [2] = assay: Antimicrobial activity against Bacillus subtilis at 50 ug/disk
Staphylococcus aureus [3] = assay: Antimicrobial activity against Staphylococcus aureus at 100 ug/disk
Bacillus subtilis [4] = assay: Antimicrobial activity against Bacillus subtilis at 10 ug/disk
Candida albicans [5] = assay: Antimicrobial activity against Candida albicans at 25 ug/disk
Staphylococcus aureus [6] = assay: Antimicrobial activity against Staphylococcus aureus at 25 ug/disk

Measured: Activity

COC1=C(Br)[C@@H](O)[C@]2(C=C1Br)CC(C(=O)NCCC(O)CNC(=O)C1=NO[C@]3(C=C(Br)C(OC)=C(Br)[C@@H]3O)C1)=NO2 (some centres not stated)
active: Candida albicans [1] | Bacillus subtilis [2] | Staphylococcus aureus [3]

COC1=C(Br)[C@@H](O)[C@]2(C=C1Br)CC(C(=O)NCCc1cc(Br)c(OCCCNC(=O)C3=NO[C@]4(C=C(Br)C(OC)=C(Br)[C@@H]4O)C3)c(Br)c1)=NO2
active: Bacillus subtilis [4] | Candida albicans [5] | Staphylococcus aureus [6]

COC1=C(Br)[C@H](O)[C@@]2(C=C1Br)CC(C(=O)NCCCCNC(=O)C1=NO[C@]3(C=C(Br)C(OC)=C(Br)[C@@H]3O)C1)=NO2
active: Candida albicans [1] | Bacillus subtilis [2] | Staphylococcus aureus [3]

COC1=C(Br)[C@H](O)[C@@]2(C=C1Br)CC(C(=O)NCCCCCNC(=O)C1=NO[C@]3(C=C(Br)C(OC)=C(Br)[C@@H]3O)C1)=NO2
active: Candida albicans [1] | Bacillus subtilis [2] | Staphylococcus aureus [3]
